Among the data in US20230416228A1 (Forkhead Biotherapeutics, Inc., priority 2020, published 2023) are IC50 values, retold here.

This test addresses T1, human FOXO1 (constitutively active form Thr24Ala, Ser256Ala, Ser319Ala) (Homo sapiens, UniProt Q12778, S256A/S319A/T24A).
T1 construct: expressed in transfected cells; host or cells: HEK293 cells transfected with pcDNA3.1 plasmid
The test can be described thus: FOXO1 inhibitor activity assay: cell-based transcriptional (luciferase) reporter assay in HEK293 cells. The conditions noted are these: HEK293 cells transfected with insulin response element firefly luciferase reporter, FOXO1 and Renilla luciferase; 10-point dose response 50 μM to 2.5 nM; 24 hours. How it is done: The inhibitory activities of compounds on FOXO1 were determined by a cell-based transcriptional reporter assay. HEK293 cells were plated onto either 384-well poly-D-lysine coated plates (at 7500 cells per well) or 96-well plates (at 20000 cells per well) in low glucose Eagle's Minimum Essential Medium (EMEM) containing 1% fetal bovine serum, and incubated overnight at 37° C. and 5% CO2. […] Duplicate wells were included for each treatment condition. Cells were incubated for 24 hours at 37° C. and 5% CO2. Luciferase activities in each well were measured using Dual-Glog Luciferase Assay System (Promega) according to manufacturer's protocol and an Envision plate reader suitable for luminescence detection. Firefly luciferase activity was divided by Renilla luciferase activity to calculate a ratio for each well. The ratio in wells containing cells transfected with all 3 plasmids listed above and receiving only DMSO without compound addition was set to 100%. The ratio in wells containing cells transfected with plasmid (1), plasmid (3), and pcDNA3.1 containing the open reading frame of red fluorescent protein (instead of human FOXO1) and treated with DMSO was set to 0%. The ratio in each well receiving compound treatment was normalized and expressed as a percentage. Data were fit by 4-parameter logistic regression to determine IC50 and maximal inhibition values. Each compound was tested in a minimum of 2 independent experiments.
(In general: In a reporter assay the amount or activity of a reporter protein is the signal.)

T1 sequence (Q12778 whole entry T24A/S256A/S319A): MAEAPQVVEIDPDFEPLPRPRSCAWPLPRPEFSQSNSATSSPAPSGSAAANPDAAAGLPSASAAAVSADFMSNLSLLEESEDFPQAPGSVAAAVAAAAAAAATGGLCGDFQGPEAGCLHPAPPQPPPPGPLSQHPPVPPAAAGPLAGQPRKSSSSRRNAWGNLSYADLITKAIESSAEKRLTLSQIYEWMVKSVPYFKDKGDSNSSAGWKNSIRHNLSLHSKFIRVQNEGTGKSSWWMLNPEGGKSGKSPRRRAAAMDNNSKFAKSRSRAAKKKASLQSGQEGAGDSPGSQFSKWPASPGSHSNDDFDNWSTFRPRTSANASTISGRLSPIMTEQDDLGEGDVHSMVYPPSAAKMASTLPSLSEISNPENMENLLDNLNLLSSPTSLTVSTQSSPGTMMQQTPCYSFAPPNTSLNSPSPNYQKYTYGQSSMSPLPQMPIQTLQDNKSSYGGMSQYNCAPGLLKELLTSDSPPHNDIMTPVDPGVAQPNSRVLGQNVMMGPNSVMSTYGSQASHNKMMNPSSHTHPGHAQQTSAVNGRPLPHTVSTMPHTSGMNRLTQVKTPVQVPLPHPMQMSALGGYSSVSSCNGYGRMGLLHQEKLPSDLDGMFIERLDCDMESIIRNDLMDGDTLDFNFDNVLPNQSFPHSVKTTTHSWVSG

Consider `CCOC(=O)[C@@H]1CCCN1c1ccc(C(=O)Nc2cc(-c3nc4ccccc4[nH]3)[nH]n2)cn1` [Compound A-56, ethyl (2S)-1-[5-[[5-(1H-benzimidazol-2-yl)-1H-pyrazol-3-yl]carbamoyl]-2-pyridyl]pyrrolidine-2-carboxylate], for which the IC50 (usually the midpoint of a concentration-inhibition curve) was over 1 µM. `CCOC(=O)COc1ccc(C(=O)Nc2cc(-c3nc4ccccc4[nH]3)[nH]n2)cc1Cl` [Compound A-57, ethyl 2-[4-[[5-(1H-benzimidazol-2-yl)-1H-pyrazol-3-yl]carbamoyl]-2-chloro-phenoxy]acetate] returned an IC50 of over 1 µM. For `COCCCOc1ccc(C(=O)Nc2cc(-c3nc4cc(OC)ccc4[nH]3)[nH]n2)cc1Cl` [Compound A-58, 3-chloro-N-[5-(5-methoxy-1H-benzimidazol-2-yl)-1H-pyrazol-3-yl]-4-(3-methoxypropoxy)benzamide] the value was under 0.1 µM. The compound `CC1(O)CCCN(c2ccc(C(=O)Nc3cc(-c4nc5ccccc5[nH]4)[nH]n3)cn2)C1` (stereo not shown) [Compound A-59, N-[5-(1H-benzimidazol-2-yl)-1H-pyrazol-3-yl]-6-(3-hydroxy-3-methyl-1-piperidyl)pyridine-3-carboxamide] registered an IC50 of 0.3 to 1 µM. Compound `O=C(Nc1cc(-c2nc3ccccc3[nH]2)[nH]n1)c1ccc(N2C[C@H](O)[C@@H](O)C2)nc1` [Compound A-60, N-[5-(1H-benzimidazol-2-yl)-1H-pyrazol-3-yl]-6-[(3S,4S)-3,4-dihydroxy-pyrrolidin-1-yl]pyridine-3-carboxamide] displayed an IC50 of over 1 µM. The compound `CCOCCNc1ccc(C(=O)Nc2cc(-c3nc4ccccc4[nH]3)[nH]n2)cn1` [Compound A-61, N-[5-(1H-benzimidazol-2-yl)-1H-pyrazol-3-yl]-6-(2-ethoxyethylamino)-pyridine-3-carboxamide] showed an IC50 of 0.1 to 0.3 µM. In the case of `O=C(O)COc1ccc(C(=O)Nc2cc(-c3nc4ccccc4[nH]3)[nH]n2)cn1` [Compound A-62, 2-[[5-[[5-(1H-benzimidazol-2-yl)-1H-pyrazol-3-yl]carbamoyl]-2-pyridyl]-oxy]acetic acid], the IC50 is over 1 µM. The figure for `C[C@H](CO)Nc1ccc(C(=O)Nc2cc(-c3nc4ccccc4[nH]3)[nH]n2)cn1` [Compound A-63, N-[5-(1H-benzimidazol-2-yl)-1H-pyrazol-3-yl]-6-[[(1R)-2-hydroxy-1-methyl-ethyl]amino]pyridine-3-carboxamide] is over 1 µM.

Consider `O=C(Nc1cc(-c2nc3ccccc3[nH]2)[nH]n1)c1ccc(N2CC(O)C2)nc1` [Compound A-64, N-[5-(1H-benzimidazol-2-yl)-1H-pyrazol-3-yl]-6-(3-hydroxyazetidin-1-yl)pyridine-3-carboxamide], for which the IC50 is over 1 µM. On to `COC1CN(c2ccc(C(=O)Nc3cc(-c4nc5ccccc5[nH]4)[nH]n3)cn2)C1` [Compound A-65, N-[5-(1H-benzimidazol-2-yl)-1H-pyrazol-3-yl]-6-(3-methoxyazetidin-1-yl)pyridine-3-carboxamide], for which the 50% inhibitory concentration (IC50) was under 0.1 µM. Take `O=C(Nc1cc(-c2nc3ccccc3[nH]2)[nH]n1)c1ccc(N2CCCC(O)C2)nc1` (stereo not shown) [Compound A-66, N-[5-(1H-benzimidazol-2-yl)-1H-pyrazol-3-yl]-6-(3-hydroxy-1-piperidyl)pyridine-3-carboxamide]: the IC50 was 0.3 to 1 µM. For the compound `O=C(Nc1cc(-c2nc3ccccc3[nH]2)[nH]n1)c1ccc(N2CCC(CO)CC2)nc1` [Compound A-67, N-[5-(1H-benzimidazol-2-yl)-1H-pyrazol-3-yl]-6-[4-(hydroxymethyl)-1-piperidyl]pyridine-3-carboxamide], the IC50 was under 0.1 µM. The figure for `O=C(Nc1cc(-c2nc3ccccc3[nH]2)[nH]n1)c1ccc(N2CCCC(CO)C2)nc1` (stereo not shown) [Compound A-68, N-[5-(1H-benzimidazol-2-yl)-1H-pyrazol-3-yl]-6-[3-(hydroxymethyl)-1-piperidyl]pyridine-3-carboxamide] is under 0.1 µM; for `O=C1CN(c2ccc(C(=O)Nc3cc(-c4nc5ccccc5[nH]4)[nH]n3)cn2)CCN1` [Compound A-69, N-[5-(1H-benzimidazol-2-yl)-1H-pyrazol-3-yl]-6-(3-oxopiperazin-1-yl)pyridine-3-carboxamide] it is 0.3 to 1 µM. For `CCOC(=O)COc1ccc(C(=O)Nc2cc(-c3nc4ccccc4[nH]3)[nH]n2)cn1` [Compound A-70, ethyl 2-[[5-[[5-(1H-benzimidazol-2-yl)-1H-pyrazol-3-yl]carbamoyl]-2-pyridyl]oxy]acetate], the IC50 is over 1 µM.

`COc1ccc(C(=O)Nc2n[nH]c(-c3nc4ccccc4[nH]3)c2Br)cc1Cl` [Compound A-71, N-[5-(1H-benzimidazol-2-yl)-4-bromo-1H-pyrazol-3-yl]-3-chloro-4-methoxy-benzamide] had an IC50 of 0.3 to 1 µM. The compound `O=C(O)COc1ccc(C(=O)Nc2cc(-c3nc4ccccc4[nH]3)[nH]n2)cc1Cl` [Compound A-72, 2-[4-[[5-(1H-benzimidazol-2-yl)-1H-pyrazol-3-yl]carbamoyl]-2-chloro-phenoxy]acetic acid] registered an IC50 of over 1 µM. The figure for `COC[C@H](C)Nc1ccc(C(=O)Nc2cc(-c3nc4ccccc4[nH]3)[nH]n2)cn1` [Compound A-73, N-[5-(1H-benzimidazol-2-yl)-1H-pyrazol-3-yl]-6-[[(1S)-2-methoxy-1-methyl-ethyl]amino]pyridine-3-carboxamide] is 0.3 to 1 µM; for `COc1ccc(C(=O)Nc2n[nH]c(-c3nc4ccccc4[nH]3)c2Cl)cc1Cl` [Compound A-74, N-[5-(1H-benzimidazol-2-yl)-4-chloro-1H-pyrazol-3-yl]-3-chloro-4-methoxy-benzamide] it is over 1 µM. In the case of `COCCOc1ccc(C(=O)Nc2cc(-c3nc4ccccc4[nH]3)[nH]n2)cc1OC` [Compound A-75, N-[5-(1H-benzimidazol-2-yl)-1H-pyrazol-3-yl]-3-methoxy-4-(2-methoxyethoxy)benzamide], the IC50 is under 0.1 µM. `COc1ccc(C(=O)Nc2n[nH]c(-c3nc4ccccc4[nH]3)c2F)cc1Cl` [Compound A-76, N-[5-(1H-benzimidazol-2-yl)-4-fluoro-1H-pyrazol-3-yl]-3-chloro-4-methoxy-benzamide]: the IC50 is over 1 µM. As to `O=C(Nc1cc(-c2nc3ccccc3[nH]2)[nH]n1)c1ccc(NCCO)c(Cl)c1` [Compound A-78, N-[5-(1H-benzimidazol-2-yl)-1H-pyrazol-3-yl]-3-chloro-4-(2-hydroxy-ethylamino)benzamide], the IC50 fell in the range of 0.1 to 0.3 µM. Consider `COCCOc1ccc(C(=O)Nc2cc(-c3nc4cc(OC)ccc4[nH]3)[nH]n2)cc1Cl` [Compound A-79, 3-chloro-N-[5-(5-methoxy-1H-benzimidazol-2-yl)-1H-pyrazol-3-yl]-4-(2-methoxyethoxy)benzamide], for which the IC50 is under 0.1 µM. `O=C(Nc1cc(-c2nc3cc(F)ccc3[nH]2)[nH]n1)c1ccc(N2CCC(CO)CC2)nc1` [Compound A-80, N-[5-(5-fluoro-1H-benzimidazol-2-yl)-1H-pyrazol-3-yl]-6-[4-(hydroxymethyl)-1-piperidyl]pyridine-3-carboxamide] gave an IC50 of under 0.1 µM. The figure for `O=C(Nc1cc(-c2nc3cc(F)ccc3[nH]2)[nH]n1)c1ccc(N2CCC(O)CC2)nc1` [Compound A-81, N-[5-(5-fluoro-1H-benzimidazol-2-yl)-1H-pyrazol-3-yl]-6-(4-hydroxy-1-piperidyl)pyridine-3-carboxamide] is 0.1 to 0.3 µM.
